Reference: US20230233569A1 (Revolution Medicines, Inc., priority 2020, published 2023)

Assays:
[1] = system: Capan-1 (K-Ras G12V); assay: CellTiter-Glo cell viability assay, 5-day treatment; type: cell-based; details: Homo sapiens, CAPAN-1, 120 h, 5-day treatment; read-out: Capan-1 Cell Viability assay data (K-Ras G12V, IC50)
How it was run: (§1)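 Five-day compound treatment of plated cells; luminescent read after ~30 min at RT. Percent-of-DMSO data fit to a four-parameter logistic model.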

[2] = system: NCI-H358 (K-Ras G12C); assay: as above; type: cell-based; details: Homo sapiens, NCI-H358, 120 h, 5-day treatment; read-out: H358 Cell Viability assay data (K-Ras G12C, IC50)
How it was run: as §1

[3] = molecular target: KRAS G12C (Homo sapiens, UniProt P01116+P62937, G12C); assay: Disruption of BRAF RBD interaction with Ras (FRET / MOA assay, with Cyclophilin A); type: biochemical; details: read-out: KRAS G12C FRET data, IC50
Sequence of KRAS G12C (P01116 1-169 isoform P01116-2 G12C): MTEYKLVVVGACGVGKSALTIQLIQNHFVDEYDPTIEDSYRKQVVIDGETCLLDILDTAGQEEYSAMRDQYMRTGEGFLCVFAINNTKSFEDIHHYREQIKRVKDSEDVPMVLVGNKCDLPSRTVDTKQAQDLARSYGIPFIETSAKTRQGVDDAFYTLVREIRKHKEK
Sequence of KRAS G12C (P62937 whole entry): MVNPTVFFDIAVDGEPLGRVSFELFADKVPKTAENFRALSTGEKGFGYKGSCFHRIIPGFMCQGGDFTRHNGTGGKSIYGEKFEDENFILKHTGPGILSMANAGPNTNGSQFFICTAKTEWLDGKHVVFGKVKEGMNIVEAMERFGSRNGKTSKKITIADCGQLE
How it was run: (§2)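 TR-FRET: nucleotide-loaded K-Ras mutant or WT with Cyclophilin A and BRAF RBD, compound 10-point 3-fold from 30 μM final, 3 h at 25° C, then anti-His Eu (10 nM) and anti-GST APC (50 nM) for 1.5 h. Decreased FRET ratio versus DMSO gives IC50.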

[4] = molecular target: KRAS G12D (Homo sapiens, UniProt P01116+P62937, G12D); assay: as above; type: biochemical; details: read-out: KRAS G12D FRET data, IC50
Sequence of KRAS G12D (P01116 1-169 isoform P01116-2 G12D limits assumed): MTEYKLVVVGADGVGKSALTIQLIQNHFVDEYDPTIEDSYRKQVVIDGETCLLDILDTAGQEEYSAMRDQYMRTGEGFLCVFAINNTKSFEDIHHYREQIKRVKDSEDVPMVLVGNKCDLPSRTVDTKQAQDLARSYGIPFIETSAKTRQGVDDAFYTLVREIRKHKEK
Sequence of KRAS G12D (P62937 whole entry): as the sequence (P62937 whole entry) above
How it was run: as §2

[5] = molecular target: KRAS G12S (Homo sapiens, UniProt P01116+P62937, G12S); assay: as above; type: biochemical; details: read-out: KRAS G12S FRET data, IC50
Sequence of KRAS G12S (P01116 1-169 isoform P01116-2 G12S limits assumed): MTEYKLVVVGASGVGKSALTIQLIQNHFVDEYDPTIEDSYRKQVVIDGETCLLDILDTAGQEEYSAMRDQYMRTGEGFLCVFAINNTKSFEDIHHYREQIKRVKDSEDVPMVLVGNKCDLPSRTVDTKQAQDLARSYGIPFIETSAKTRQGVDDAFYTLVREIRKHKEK
Sequence of KRAS G12S (P62937 whole entry): as the sequence (P62937 whole entry) above
How it was run: as §2

[6] = molecular target: KRAS G12V (Homo sapiens, UniProt P01116+P62937, G12V); assay: as above; type: biochemical; details: KRAS G12V; read-out: KRAS G12V FRET data IC50
Sequence of KRAS G12V (P01116 1-169 isoform P01116-2 G12V limits assumed): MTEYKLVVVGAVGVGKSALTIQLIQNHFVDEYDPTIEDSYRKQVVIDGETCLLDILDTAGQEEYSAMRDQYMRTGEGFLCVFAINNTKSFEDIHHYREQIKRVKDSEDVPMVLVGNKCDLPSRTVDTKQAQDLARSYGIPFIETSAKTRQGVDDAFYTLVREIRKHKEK
Sequence of KRAS G12V (P62937 whole entry): as the sequence (P62937 whole entry) above
How it was run: as §2

[7] = molecular target: KRAS G13C (Homo sapiens, UniProt P01116+P62937, G13C); assay: as above; type: biochemical; details: read-out: KRAS G13C FRET data, IC50
Sequence of KRAS G13C (P01116 1-169 isoform P01116-2 G13C): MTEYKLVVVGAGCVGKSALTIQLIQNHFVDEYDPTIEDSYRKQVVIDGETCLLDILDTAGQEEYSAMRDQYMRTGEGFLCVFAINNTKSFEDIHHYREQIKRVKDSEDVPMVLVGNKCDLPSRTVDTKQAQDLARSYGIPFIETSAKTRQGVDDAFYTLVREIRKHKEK
Sequence of KRAS G13C (P62937 whole entry): as the sequence (P62937 whole entry) above
How it was run: as §2

[8] = molecular target: KRAS G13D (Homo sapiens, UniProt P01116+P62937, G13D); assay: as above; type: biochemical; details: KRAS G13D; read-out: KRAS G13D FRET data IC50
Sequence of KRAS G13D (P01116 1-169 isoform P01116-2 G13D limits assumed): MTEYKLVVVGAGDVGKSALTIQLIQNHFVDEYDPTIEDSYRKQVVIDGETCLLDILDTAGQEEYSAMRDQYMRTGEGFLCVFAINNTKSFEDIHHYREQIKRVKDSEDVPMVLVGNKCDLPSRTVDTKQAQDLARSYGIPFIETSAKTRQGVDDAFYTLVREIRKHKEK
Sequence of KRAS G13D (P62937 whole entry): as the sequence (P62937 whole entry) above
How it was run: as §2

[9] = molecular target: KRAS WT (Homo sapiens, UniProt P01116+P62937); assay: as above; type: biochemical; details: KRAS WT; read-out: KRAS WT FRET data IC50
Sequence of KRAS WT (P01116 1-169 isoform P01116-2 limits assumed): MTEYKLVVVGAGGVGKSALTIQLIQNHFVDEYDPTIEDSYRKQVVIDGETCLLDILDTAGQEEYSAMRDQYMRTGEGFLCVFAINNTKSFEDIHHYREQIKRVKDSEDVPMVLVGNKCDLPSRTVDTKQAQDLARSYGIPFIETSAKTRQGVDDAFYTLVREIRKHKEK
Sequence of KRAS WT (P62937 whole entry): as the sequence (P62937 whole entry) above
How it was run: as §2

[10] = molecular target: NRAS G12C (Homo sapiens, UniProt P01111+P62937, G12C); assay: as above; type: biochemical; details: NRAS G12C; read-out: NRAS G12C FRET data IC50
Sequence of NRAS G12C (P01111 whole entry G12C): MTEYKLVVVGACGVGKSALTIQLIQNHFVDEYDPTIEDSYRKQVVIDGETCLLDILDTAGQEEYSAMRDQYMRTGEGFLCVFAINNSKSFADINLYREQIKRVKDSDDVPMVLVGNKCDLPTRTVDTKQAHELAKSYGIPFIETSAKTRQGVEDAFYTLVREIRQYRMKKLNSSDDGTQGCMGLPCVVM
Sequence of NRAS G12C (P62937 whole entry): as the sequence (P62937 whole entry) above

[11] = molecular target: KRAS Q61H (Homo sapiens, UniProt P01116+P62937, Q61H); assay: as above; type: biochemical; details: KRAS Q61H; read-out: KRAS Q61H FRET data IC50
Sequence of KRAS Q61H (P01116 1-169 isoform P01116-2 Q61H limits assumed): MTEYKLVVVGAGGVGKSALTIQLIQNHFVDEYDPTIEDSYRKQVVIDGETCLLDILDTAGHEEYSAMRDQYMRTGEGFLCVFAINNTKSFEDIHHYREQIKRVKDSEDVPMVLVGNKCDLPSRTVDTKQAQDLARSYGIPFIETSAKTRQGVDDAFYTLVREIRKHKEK
Sequence of KRAS Q61H (P62937 whole entry): as the sequence (P62937 whole entry) above
How it was run: (§3)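 TR-FRET in 25 mM HEPES pH 7.3, 100 mM NaCl, 5 mM MgCl2, 0.1% BSA: 25 μM Cyclophilin A, 12.5 nM His6-Ras-GMPPNP, 50 nM GST-BRAF RBD with compound (10-point 3-fold series from 30 μM), 3 h at 25° C. Anti-His Eu/anti-GST APC added, 1.5 h more; IC50 from decreased FRET ratio versus DMSO.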

[12] = molecular target: NRAS Q61K (Homo sapiens, UniProt P01111+P62937, Q61K); assay: as above; type: biochemical; details: NRAS Q61K; read-out: NRAS Q61K FRET data IC50
Sequence of NRAS Q61K (P01111 whole entry Q61K): as the sequence (P01111 whole entry G12C) above, with C12G, Q61K counted along it
Sequence of NRAS Q61K (P62937 whole entry): as the sequence (P62937 whole entry) above
How it was run: as §3

[13] = molecular target: NRAS Q61R (Homo sapiens, UniProt P01111+P62937, Q61R); assay: as above; type: biochemical; details: NRAS Q61R; read-out: NRAS Q61R FRET data IC50
Sequence of NRAS Q61R (P01111 whole entry Q61R): as the sequence (P01111 whole entry G12C) above, with C12G, Q61R counted along it
Sequence of NRAS Q61R (P62937 whole entry): as the sequence (P62937 whole entry) above
How it was run: as §3

[14] = molecular target: NRAS WT (Homo sapiens, UniProt P01111+P62937); assay: as above; type: biochemical; details: NRAS WT; read-out: NRAS WT FRET data IC50
Sequence of NRAS WT (P01111 whole entry): as the sequence (P01111 whole entry G12C) above, with C12G counted along it
Sequence of NRAS WT (P62937 whole entry): as the sequence (P62937 whole entry) above
How it was run: as §3

Row | SMILES | IC50 [2] [nM] | IC50 [3] [nM] | IC50 [4] [nM] | IC50 [5] [nM] | IC50 [6] [nM] | IC50 [7] [nM] | IC50 [8] [nM] | IC50 [9] [nM] | IC50 [10] [nM] | IC50 [11] [nM] | IC50 [12] [nM] | IC50 [13] [nM] | IC50 [14] [nM] | IC50 [1] [nM]
1 | CCn1c(-c2cc(N3CCN(C)CC3)cnc2[C@H](C)OC)c2c3cc(ccc31)-c1cc(O)cc(c1)C[C@H](NC(=O)[C@H](C(C)C)N(C)C(=O)[C@@H]1OCC[C@@H]1c1ccccc1)C(=O)N1CCC[C@H](N1)C(=O)OCC(C)(C)C2 (atropisomer, axis not shown) [Example A594] | < 10 | < 10 | 10 to 100 | < 10 | 10 to 100 | < 10 | 10 to 100 | < 10 | < 10 | < 10 | 10 to 100 | < 10 | < 10 | < 10
2 | CCn1c(-c2cccnc2[C@H](C)OC)c2c3cc(ccc31)-c1csc(n1)C[C@H](NC(=O)[C@H](C(C)C)N(C)C(=O)N1CC[C@@H](N(C)C)C1)C(=O)N1CCC[C@H](N1)C(=O)OCC(C)(C)C2 (atropisomer, axis not shown) [Example A566] | 10 to 100 | 100 to 1000 | 100 to 1000 | 100 to 1000 | 100 to 1000 | 100 to 1000 | 100 to 1000 | 100 to 1000 | 100 to 1000 | 10 to 100 | 10 to 100 | 100 to 1000 | 100 to 1000 | 10 to 100
3 | CCn1c(-c2cccnc2[C@H](C)OC)c2c3cc(ccc31)-c1csc(n1)C[C@H](NC(=O)[C@H](C(C)C)N(C)C(=O)N1CC([C@@H](C)CO)C1)C(=O)N1CCC[C@H](N1)C(=O)OCC(C)(C)C2 (single isomer, unassigned) [Example A487] | < 10 | 10 to 100 | 100 to 1000 | 100 to 1000 | 10 to 100 | 100 to 1000 | 100 to 1000 | 10 to 100 | 10 to 100 | 10 to 100 | 10 to 100 | 10 to 100 | 10 to 100 | 10 to 100
4 | CCn1c(-c2cccnc2[C@H](C)OC)c2c3cc(ccc31)-c1csc(n1)C[C@H](NC(=O)[C@H](C(C)C)N(C)C(=O)N1C[C@H]3CN(C)C[C@H]31)C(=O)N1CCC[C@H](N1)C(=O)OCC(C)(C)C2 [Example A497] | 100 to 1000 | 100 to 1000 | 1000 to 10000 | 1000 to 10000 | 1000 to 10000 | 100 to 1000 | 1000 to 10000 | 1000 to 10000 | 100 to 1000 | 100 to 1000 | 100 to 1000 | 1000 to 10000 | 100 to 1000 | 100 to 1000
5 | CCn1c(-c2cccnc2[C@H](C)OC)c2c3cc(ccc31)-c1csc(n1)C[C@H](NC(=O)[C@H](C(C)C)N(C)C(=O)N1CC3(CCCO3)C1)C(=O)N1CCC[C@H](N1)C(=O)OCC(C)(C)C2 (atropisomer, axis not shown) [Example A522] | 10 to 100 | 100 to 1000 | 1000 to 10000 | 100 to 1000 | 100 to 1000 | 100 to 1000 | 1000 to 10000 | 100 to 1000 | 100 to 1000 | 100 to 1000 | 10 to 100 | 100 to 1000 | 100 to 1000 | 100 to 1000
6 | CCn1c(-c2cccnc2[C@H](C)OC)c2c3cc(ccc31)-c1csc(n1)C[C@H](NC(=O)[C@H](C(C)C)N(C)C(=O)N1CCC13CN(C)C3)C(=O)N1CCC[C@H](N1)C(=O)OCC(C)(C)C2 [Example A274] | 100 to 1000 | 10 to 100 | 100 to 1000 | 100 to 1000 | 100 to 1000 | 100 to 1000 | 100 to 1000 | 10 to 100 | 10 to 100 | 10 to 100 | 100 to 1000 | 100 to 1000 | 10 to 100 | 100 to 1000
7 | CCn1c(-c2cc(N3CCN(C)CC3)cnc2[C@H](C)OC)c2c3cc(ccc31)-c1cc(O)cc(c1)C[C@H](NC(=O)[C@H](C1CCCC1)N(C)C(=O)[C@H]1OCC[C@H]1c1ccccc1)C(=O)N1CCC[C@H](N1)C(=O)OCC(C)(C)C2 [Example A423] | 100 to 1000 | 100 to 1000 | 100 to 1000 | 100 to 1000 | 10 to 100 | 100 to 1000 | 100 to 1000 | 100 to 1000 | 100 to 1000 | 100 to 1000 | 1000 to 10000 | 100 to 1000 | 100 to 1000 | 100 to 1000
8 | CCn1c(-c2cccnc2[C@H](C)OC)c2c3cc(ccc31)-c1csc(n1)C[C@H](NC(=O)[C@H](C(C)C)N(C)C(=O)N1C[C@H](N)[C@@H](F)C1)C(=O)N1CCC[C@H](N1)C(=O)OCC(C)(C)C2 (atropisomer, axis not shown) [Example A567] | 10 to 100 | 10 to 100 | 100 to 1000 | 100 to 1000 | 100 to 1000 | 100 to 1000 | 100 to 1000 | 100 to 1000 | 10 to 100 | 10 to 100 | 10 to 100 | 100 to 1000 | 100 to 1000 | 100 to 1000

Further lines, with some results ahead:

Row | IC50 [2] [nM] | IC50 [3] [nM] | IC50 [4] [nM] | IC50 [5] [nM] | IC50 [6] [nM] | IC50 [7] [nM] | IC50 [8] [nM] | IC50 [9] [nM] | IC50 [10] [nM] | IC50 [11] [nM] | IC50 [12] [nM] | IC50 [13] [nM] | IC50 [14] [nM] | SMILES | IC50 [1] [nM]
9 | 100 to 1000 | 100 to 1000 | 1000 to 10000 | 100 to 1000 | 100 to 1000 | 100 to 1000 | 1000 to 10000 | 100 to 1000 | 100 to 1000 | 100 to 1000 | 100 to 1000 | 100 to 1000 | 100 to 1000 | CCn1c(-c2cccnc2[C@H](C)OC)c2c3cc(ccc31)-c1csc(n1)C[C@H](NC(=O)[C@@H](OC(=O)N1CC(OC)C1)C(C)C)C(=O)N1CCC[C@H](N1)C(=O)OCC(C)(C)C2 [Example A354] | 100 to 1000
10 | 10 to 100 | 10 to 100 | 100 to 1000 | 100 to 1000 | 100 to 1000 | 100 to 1000 | 100 to 1000 | 100 to 1000 | 10 to 100 | 10 to 100 | 10 to 100 | 100 to 1000 | 100 to 1000 | CCn1c(-c2cccnc2[C@H](C)OC)c2c3cc(ccc31)-c1csc(n1)C[C@H](NC(=O)[C@H](C(C)C)N(C)C(=O)N1CC3(CC3)C1)C(=O)N1CCC[C@H](N1)C(=O)OCC(C)(C)C2 (atropisomer, axis not shown) [Example A523] | 10 to 100
11 | 10 to 100 | 10 to 100 | 100 to 1000 | 10 to 100 | 100 to 1000 | 100 to 1000 | 100 to 1000 | 10 to 100 | 10 to 100 | 10 to 100 | 100 to 1000 | 100 to 1000 | 10 to 100 | CCn1c(-c2cccnc2[C@H](C)OC)c2c3cc(ccc31)-c1csc(n1)C[C@H](NC(=O)[C@H](C(C)C)N(C)C(=O)N1CCCC13CCN(C)CC3)C(=O)N1CCC[C@H](N1)C(=O)OCC(C)(C)C2 [Example A498] | 100 to 1000
12 | 10 to 100 | 10 to 100 | 100 to 1000 | 10 to 100 | 10 to 100 | 10 to 100 | 100 to 1000 | 10 to 100 | 10 to 100 | 10 to 100 | 10 to 100 | 10 to 100 | 10 to 100 | CCn1c(-c2cccnc2[C@H](C)OC)c2c3cc(ccc31)-c1csc(n1)C[C@H](NC(=O)[C@H](C(C)C)N(C)C(=O)N1CCC(C(=O)C(F)(F)F)CC1)C(=O)N1CCC[C@H](N1)C(=O)OCC(C)(C)C2 [Example A422] | 100 to 1000
